Data taken from patent US7625943B2, “5-alkyl-7-alkylcarbonate-isoflavone ester and related method” (priority 2004, dated 2009).

Key:
duration of action = assay type: in vivo; settings: estimated; ratio to 5-methyl-7-methoxy-isoflavone
Text: One limitation of known prodrugs is that, once they are transformed into the parent drug, they are broken down in the body, and particularly in the liver. This breakdown reduces in vivo concentration and bioavailability of the drug. This breakdown effect has been observed with 5-methyl-7-methoxy-isoflavone. In the presently preferred embodiments of the invention, however, the compounds are less prone to such breakdown in the body relative to many known prodrug-type compounds. This in many instances is attributable to the alkylcarbonate ester promoiety, which makes the compound more resistant to hydrolysis and other reactions that inhibit or destroy them in the body. In vivo concentrations thus can be maintained more readily, and bioavailability of the parent isoflavone can be improved. It has been estimated that the duration of action for 5-methyl-7-ethylcarbonate-isoflavone may be twice that of 5-methyl-7-methoxy-isoflavone.

[1] = after transformation into the parent drug; cited from earlier work
[2] = administered to a human; estimated; cited from earlier work

duration of action relative to 5-methyl-7-methoxy-isoflavone (duration of action) | SMILES | breakdown effect in the body (liver) reducing in vivo concentration and bioavailability [1] | proportion of administered prodrug converted in vivo to 7-hydroxy-5-methyl-isoflavone [2]
twice | CCOC(=O)Oc1cc(C)c2c(=O)c(-c3ccccc3)coc2c1 [5-methyl-7-ethylcarbonate-isoflavone] | – | –
– | COc1cc(C)c2c(=O)c(-c3ccccc3)coc2c1 [5-methyl-7-methoxy-isoflavone] | observed | approximately 50%
